Experimental data from patent publication US20250051300A1, “GRAM-NEGATIVE SPECIFIC ANTIBIOTICS SPARING EFFECT ON GUT MICROBIOME” (THE BOARD OF TRUSTEES OF THE UNIVERSITY OF ILLINOIS, priority 2021, published 2025).
In brackets after ≈: the same amount, converted by molar mass. Like-named read-outs stand apart in the source and are kept apart here.

What was measured:
[1] = tested on: clinical isolates of E. coli, K. pneumoniae, and E. cloacae; assay: Susceptibility of panel of multidrug-resistant clinical isolates
[2] = Aqueous solubility limit; format: physicochemical; conditions: cation-adjusted Mueller Hinton broth (MIC assay medium); limit to which compounds were tested in MIC assays
[3] = Mouse maximum tolerated dose / tolerability; format: in vivo; conditions: IP
Method: Mouse maximum tolerated dose (MTD) of compound 2 and lolamycin. […] In these studies, 10- to 12-week-old female C57BL/6 mice purchased from Charles River Laboratories were used. The maximum tolerated dose (MTD) of a single compound via IP injection was determined first. Compound 2 and lolamycin were formulated in 50% DMSO, 50% PEG400. Compound 2 and lolamycin were given by intraperitoneal (IP) injection. All the mice were monitored for signs of toxicity for 2 weeks. For multiple doses, the compound was given by daily IP injection for 5 consecutive days and the mice were monitored for signs of toxicity for 1 month. The MTD was the highest dosage with acceptable toxicity (for example, <20% weight loss).
Next, the MTD of lolamycin via oral gavage was determined. Lolamycin was formulated in 20% DMSO, 30% Water, and 50% PEG400. Lolamycin was given via oral gavage. All the mice were monitored for signs of toxicity for 2 weeks. For multiple doses, compound was given twice daily orally for 3 consecutive days and the mice were monitored for signs of toxicity. The MTD was the highest dosage with acceptable toxicity (for example, <20% weight loss). […] The MTD of lolamycin was used to inform the dosing schedule used in subsequent efficacy studies.

[4] = tested on: Klebsiella pneumoniae; assay: MIC, micro-dilution broth method (CLSI); format: cell-based
[5] = tested on: Enterobacter cloacae; assay: MIC, micro-dilution broth method (CLSI); format: cell-based
[6] = tested on: E. coli AR0349; assay: Bacterial sepsis survival model; format: in vivo, CD-1 mice; conditions: 100 mg/kg IP twice daily for 3 days
[7] = tested on: E. coli AR0349; assay: Acute pneumonia bacterial burden model; format: in vivo, CD-1 mice; conditions: 100 mg/kg IP twice a day for 3 days, lungs, 72 h post-infection
[8] = tested on: Escherichia coli; assay: Resistance frequency, large inoculum method; format: cell-based; conditions: E. coli ΔtolC JW5503, 32×MIC
Method: Selection of resistant mutants. Resistant mutants were selected using the large inoculum method. Briefly, E. coli BW25113, K. pneumoniae ATCC 27736, or E. cloacae ATCC 29893 (˜1.0×10^7 c.f.u.) was plated on 100-mm plates of Luria Bertani agar containing 8, 16, 32, or 64 μg/mL, lolamycin. For E. coli ΔtolC (JW5503), ˜1.0×10^7 c.f.u. was plated on 100-mm plates of Luria Bertani agar containing 0.063, 0.13, 0.25, 0.5 μg/mL lolamycin. Colonies were visible after incubating at 37° C. for 48 h. Resistant colonies were confirmed by growing colonies in selective media with the same concentration of lolamycin.

Fc1ccc(COc2cccc(-c3n[nH]cc3-c3ccncc3)c2)cc1 [Compound 2, 4-(3-(3-((4-fluorobenzyl)oxy)phenyl)-1H-pyrazol-4-yl)pyridine]
activity against MDR clinical isolates [1]: only minimal activity
solubility [2]: 32 µg/mL (≈ 92.7 µM)
tolerability ([3]; C57BL/6 mice, daily dosing of 200 mg/kg for 5 consecutive days): well tolerated
tolerability ([3]; C57BL/6 mice, single dose of 200 mg/kg): well tolerated
tolerability ([3]; mice, 100 mg/kg twice a day for three days): well-tolerated
MIC ([4]; K. pneumoniae AR-0040): >32 µg/mL
MIC ([4]; K. pneumoniae ATCC BAA-1705): >32 µg/mL
MIC ([4]; Klebsiella pneumoniae, ATCC27736, K. pneumoniae ATCC 27736, read-out: MIC): > 32 µg/mL
MIC ([4]; Klebsiella pneumoniae, ATCCBAA1705, K. pneumoniae ATCC BAA-1705, read-out: MIC): > 32 µg/mL
MIC ([4]; Klebsiella pneumoniae, ATCCBAA2146, K. pneumoniae ATCC BAA-2146, read-out: MIC): > 32 µg/mL
MIC ([4]; Klebsiella pneumoniae, ATCCBAA2342, K. pneumoniae ATCC BAA-2342, read-out: MIC): > 32 µg/mL
MIC ([4]; Klebsiella pneumoniae, ATCCBAA2470, K. pneumoniae ATCC BAA-2470, read-out: MIC): > 32 µg/mL
MIC ([4]; Klebsiella pneumoniae, ATCCBAA2472, K. pneumoniae ATCC BAA-2472, read-out: MIC): > 32 µg/mL
MIC ([4]; Klebsiella pneumoniae, ATCCBAA2473, K. pneumoniae ATCC BAA-2473, read-out: MIC): > 32 µg/mL
MIC ([4]; Klebsiella pneumoniae, K. pneumoniae AR0034, read-out: MIC): > 32 µg/mL
MIC ([4]; Klebsiella pneumoniae, K. pneumoniae AR0039, read-out: MIC): > 32 µg/mL
MIC ([4]; Klebsiella pneumoniae, K. pneumoniae AR0041, read-out: MIC): > 32 µg/mL
MIC ([4]; Klebsiella pneumoniae, K. pneumoniae AR0042, read-out: MIC): > 32 µg/mL
MIC ([4]; Klebsiella pneumoniae, K. pneumoniae AR0043, read-out: MIC): > 32 µg/mL
MIC ([4]; Klebsiella pneumoniae, K. pneumoniae AR0044, read-out: MIC): > 32 µg/mL
MIC ([4]; Klebsiella pneumoniae, K. pneumoniae AR0046, read-out: MIC): > 32 µg/mL
MIC ([4]; Klebsiella pneumoniae, K. pneumoniae AR0047, read-out: MIC): > 32 µg/mL
MIC ([4]; Klebsiella pneumoniae, K. pneumoniae AR0049, read-out: MIC): > 32 µg/mL
MIC ([4]; Klebsiella pneumoniae, K. pneumoniae AR0066, read-out: MIC): > 32 µg/mL
MIC ([4]; Klebsiella pneumoniae, K. pneumoniae AR0068, read-out: MIC): > 32 µg/mL
MIC ([4]; Klebsiella pneumoniae, K. pneumoniae AR0075, read-out: MIC): > 32 µg/mL
MIC ([4]; Klebsiella pneumoniae, K. pneumoniae AR0076, read-out: MIC): > 32 µg/mL
MIC ([4]; Klebsiella pneumoniae, K. pneumoniae AR0079, read-out: MIC): > 32 µg/mL
MIC ([4]; Klebsiella pneumoniae, K. pneumoniae AR0080, read-out: MIC): > 32 µg/mL
MIC ([4]; Klebsiella pneumoniae, K. pneumoniae AR0087, read-out: MIC): > 32 µg/mL
MIC ([4]; Klebsiella pneumoniae, K. pneumoniae AR0098, read-out: MIC): > 32 µg/mL
MIC ([4]; Klebsiella pneumoniae, K. pneumoniae AR0106, read-out: MIC): > 32 µg/mL
MIC ([4]; Klebsiella pneumoniae, K. pneumoniae AR0107, read-out: MIC): > 32 µg/mL
MIC ([4]; Klebsiella pneumoniae, K. pneumoniae AR0109, read-out: MIC): > 32 µg/mL
MIC ([4]; Klebsiella pneumoniae, K. pneumoniae AR0112, read-out: MIC): > 32 µg/mL
MIC ([4]; Klebsiella pneumoniae, K. pneumoniae AR0113, read-out: MIC): > 32 µg/mL
MIC ([4]; Klebsiella pneumoniae, K. pneumoniae AR0115, read-out: MIC): > 32 µg/mL
MIC ([4]; Klebsiella pneumoniae, K. pneumoniae AR0117, read-out: MIC): > 32 µg/mL
MIC ([4]; Klebsiella pneumoniae, K. pneumoniae AR0120, read-out: MIC): > 32 µg/mL
MIC ([4]; Klebsiella pneumoniae, K. pneumoniae AR0125, read-out: MIC): > 32 µg/mL
MIC ([4]; Klebsiella pneumoniae, K. pneumoniae AR0126, read-out: MIC): > 32 µg/mL
MIC ([4]; Klebsiella pneumoniae, K. pneumoniae AR0129, read-out: MIC): > 32 µg/mL
MIC ([4]; Klebsiella pneumoniae, K. pneumoniae AR0135, read-out: MIC): > 32 µg/mL
MIC ([4]; Klebsiella pneumoniae, K. pneumoniae AR0138, read-out: MIC): > 32 µg/mL
MIC ([4]; Klebsiella pneumoniae, K. pneumoniae AR0139, read-out: MIC): > 32 µg/mL
MIC ([4]; Klebsiella pneumoniae, K. pneumoniae AR0140, read-out: MIC): > 32 µg/mL
MIC ([4]; Klebsiella pneumoniae, K. pneumoniae AR0141, read-out: MIC): > 32 µg/mL
MIC ([4]; Klebsiella pneumoniae, K. pneumoniae AR0142, read-out: MIC): > 32 µg/mL
MIC ([4]; Klebsiella pneumoniae, K. pneumoniae AR0143, read-out: MIC): > 32 µg/mL
MIC ([4]; Klebsiella pneumoniae, K. pneumoniae AR0145, read-out: MIC): > 32 µg/mL
MIC ([4]; Klebsiella pneumoniae, K. pneumoniae AR0146, read-out: MIC): > 32 µg/mL
MIC ([4]; Klebsiella pneumoniae, K. pneumoniae AR0148, read-out: MIC): > 32 µg/mL
MIC ([4]; Klebsiella pneumoniae, K. pneumoniae AR0152, read-out: MIC): > 32 µg/mL
MIC ([4]; Klebsiella pneumoniae, K. pneumoniae AR0153, read-out: MIC): > 32 µg/mL
MIC ([4]; Klebsiella pneumoniae, K. pneumoniae AR0158, read-out: MIC): > 32 µg/mL
MIC ([4]; Klebsiella pneumoniae, K. pneumoniae AR0160, read-out: MIC): > 32 µg/mL
MIC ([4]; Klebsiella pneumoniae, K. pneumoniae AR0347, read-out: MIC): > 32 µg/mL
MIC ([4]; Klebsiella pneumoniae, K. pneumoniae AR0542, read-out: MIC): > 32 µg/mL
MIC ([4]; Klebsiella pneumoniae, K. pneumoniae AR0548, read-out: MIC): > 32 µg/mL
MIC ([4]; Klebsiella pneumoniae, K. pneumoniae AR0550, read-out: MIC): > 32 µg/mL
MIC ([4]; Klebsiella pneumoniae, K. pneumoniae AR0552, read-out: MIC): > 32 µg/mL
MIC ([4]; Klebsiella pneumoniae, K. pneumoniae AR0553, read-out: MIC): > 32 µg/mL
MIC ([4]; Klebsiella pneumoniae, K. pneumoniae AR0554, read-out: MIC): > 32 µg/mL
MIC ([4]; Klebsiella pneumoniae, K. pneumoniae AR0555, read-out: MIC): > 32 µg/mL
MIC ([4]; Klebsiella pneumoniae, K. pneumoniae AR-0040, read-out: MIC): > 32 µg/mL
MIC ([5]; E. cloacae AR-0163): >32 µg/mL
MIC ([5]; E. cloacae ATCC BAA-2468): >32 µg/mL
MIC ([5]; Enterobacter cloacae, ATCC29893, E. cloacae ATCC 29893, read-out: MIC): > 32 µg/mL
MIC ([5]; Enterobacter cloacae, ATCCBAA2341, E. cloacae ATCC BAA-2341, read-out: MIC): > 32 µg/mL
MIC ([5]; Enterobacter cloacae, ATCCBAA2468, E. cloacae ATCC BAA-2468, read-out: MIC): > 32 µg/mL
MIC ([5]; Enterobacter cloacae, E. cloacae AR0032, read-out: MIC): > 32 µg/mL
MIC ([5]; Enterobacter cloacae, E. cloacae AR0038, read-out: MIC): > 32 µg/mL
MIC ([5]; Enterobacter cloacae, E. cloacae AR0050, read-out: MIC): 8 µg/mL (≈ 23.2 µM)
MIC ([5]; Enterobacter cloacae, E. cloacae AR0053, read-out: MIC): > 32 µg/mL
MIC ([5]; Enterobacter cloacae, E. cloacae AR0060, read-out: MIC): 16 µg/mL (≈ 46.3 µM)
MIC ([5]; Enterobacter cloacae, E. cloacae AR0065, read-out: MIC): 16 µg/mL (≈ 46.3 µM)
MIC ([5]; Enterobacter cloacae, E. cloacae AR0072, read-out: MIC): > 32 µg/mL
MIC ([5]; Enterobacter cloacae, E. cloacae AR0073, read-out: MIC): > 32 µg/mL
MIC ([5]; Enterobacter cloacae, E. cloacae AR0093, read-out: MIC): > 32 µg/mL
MIC ([5]; Enterobacter cloacae, E. cloacae AR0132, read-out: MIC): > 32 µg/mL
MIC ([5]; Enterobacter cloacae, E. cloacae AR0136, read-out: MIC): > 32 µg/mL
MIC ([5]; Enterobacter cloacae, E. cloacae AR0154, read-out: MIC): 8 µg/mL (≈ 23.2 µM)
MIC ([5]; Enterobacter cloacae, E. cloacae AR0164, read-out: MIC): > 32 µg/mL
MIC ([5]; Enterobacter cloacae, E. cloacae AR0544, read-out: MIC): > 32 µg/mL
MIC ([5]; Enterobacter cloacae, E. cloacae AR0545, read-out: MIC): > 32 µg/mL
MIC ([5]; Enterobacter cloacae, E. cloacae AR-0163, read-out: MIC): > 32 µg/mL
mice with septic infection rescued (survival) [6]: fared poorly
reduction in bacterial burden [7]: fared poorly
resistance frequency [8]: 9.2×10^−7
